Data from ChEMBL document CHEMBL5620436, “Structure-Guided Design and Optimization of Covalent VHL-Targeted Sulfonyl Fluoride PROTACs” (J Med Chem, 2024).
pEC50, pIC50: −log10 of the molar value. Activity calls are given as the source filed them. The rule behind the calls is not given here.

What was measured:
[1] = target: T1, von Hippel-Lindau disease tumor suppressor (Homo sapiens, UniProt P40337); experiment: Inhibition of N-terminal 6his tagged human VHL (1 to 213 residues) expressed in HEK293 cells using NanoBRET NanoGlo substrate by NanoBRET assay; assay type: cell-based
LNCaP = experiment: Cytotoxicity against human LNCaP cells harbouring HiBit tagged AR assessed as reduction in cell viability measured after 16 hrs by cell titer glo assay; assay type: functional, cell-based
[2] = target: T2, von Hippel-Lindau disease tumor suppressor/Androgen receptor (Homo sapiens) (UniProt P10275+P40337); experiment: PROTAC activity at VHL/HiBit tagged AR in human LNCaP cells assessed as degradation of AR preincubated with epoxomicin for 3 hrs followed by compound addition and measured after 18 hrs by Nano-Glo HiBiT assay; assay type: cell-based
[3] = target: T2, von Hippel-Lindau disease tumor suppressor/Androgen receptor (Homo sapiens); experiment: PROTAC activity at VHL/HiBit tagged AR in human LNCaP cells assessed as degradation of AR preincubated with MLN4924 for 3 hrs followed by compound addition and measured after 18 hrs by Nano-Glo HiBiT assay; assay type: cell-based
[4] = target: T1, von Hippel-Lindau disease tumor suppressor; experiment: Inhibition of VHL in HEK293T cells assessed as target engagement incubated for 2 hrs by Streptavidin-pull down blotting assay; assay type: cell-based; settings: dose 1-100 µM
[5] = target: T3, von Hippel-Lindau disease tumor suppressor/Bromodomain-containing protein 4 (Homo sapiens, UniProt O60885+P40337); experiment: PROTAC activity at HiBit tagged BRD4/VHL E3 ligase in human HEK293 cells assessed as degradation of BRD4 preincubated with MLN4924 for 3 hrs followed by compound addition and measured after 18 hrs by Nano-Glo HiBiT assay; assay type: cell-based
HEK293 = experiment: Cytotoxicity against human HEK293 cells harbouring HiBit tagged BRD4 assessed as reduction in cell viability measured after 18 hrs by cell titer glo assay; assay type: toxicity, cell-based; settings: hek293, 18 h
[6] = target: T3, von Hippel-Lindau disease tumor suppressor/Bromodomain-containing protein 4; experiment: PROTAC activity at HiBit tagged BRD4/VHL E3 ligase in human HEK293 cells assessed as degradation of BRD4 preincubated with epoxomicin for 3 hrs followed by compound addition and measured after 18 hrs by Nano-Glo HiBiT assay; assay type: cell-based
[7] = target: T3, von Hippel-Lindau disease tumor suppressor/Bromodomain-containing protein 4; experiment: PROTAC activity at HiBit tagged BRD4/VHL E3 ligase in human HEK293 cells assessed as degradation of BRD4 incubated for 18 hrs by Nano-Glo HiBiT assay; assay type: cell-based

| SMILES | Activity (LNCaP) | Activity [2] | Activity [3] | also measured |
| --- | --- | --- | --- | --- |
| CC(=O)N[C@H](C(=O)N1C[C@H](S(=O)(=O)F)C[C@H]1C(=O)NCc1ccc(-c2scnc2C)cc1)C(C)(C)C | – | – | – | pIC50 [1]: < 4.00 |
| Cc1cc([C@H](C(=O)N2C[C@H](S(=O)(=O)F)C[C@H]2C(=O)N[C@@H](CC(=O)N2CCC(C#Cc3ccc(C(=O)N[C@H]4C(C)(C)[C@H](Oc5ccc(C#N)c(C(F)(F)F)c5)C4(C)C)cc3)CC2)c2ccc(-c3scnc3C)cc2)C(C)C)on1 | inactive | inactive | inactive | – |
| Cc1cc([C@H](C(=O)N2C[C@H](S(=O)(=O)F)C[C@H]2C(=O)N[C@@H](CC(=O)N2CCC(C#Cc3ccc(C(=O)N[C@H]4C(C)(C)[C@H](Oc5ccc(C#N)c(Cl)c5)C4(C)C)cc3)CC2)c2ccc(-c3scnc3C)cc2)C(C)C)on1 | inactive | inactive | inactive | – |
| Cc1cc([C@H](C(=O)N2C[C@H](S(=O)(=O)F)C[C@H]2C(=O)N[C@@H](CC(=O)NCCOCCOCCOCCNC(=O)CCCC[C@H]2SC[C@@H]3NC(=O)N[C@@H]32)c2ccc(-c3scnc3C)cc2)C(C)C)on1 | – | – | – | inhibition [4]: Dose-Dependent Effect |
| COCC(COC)n1c(-c2cc(C)c(=O)n(C)c2)nc2cc(C3CCN(C(=O)COCCOCCOCCNC(=O)C[C@H](NC(=O)[C@@H]4C[C@@H](S(=O)(=O)F)CN4C(=O)[C@@H](c4cc(C)no4)C(C)C)c4ccc(-c5scnc5C)cc4)CC3)ccc21 | – | – | – | Activity [5]: inactive; Activity (HEK293): Non-Toxic; Activity [6]: inactive; pEC50 [7]: 4.76 |
